From patent US7803816B2, “MCH receptor antagonists” (Hoffmann-La Roche Inc., priority 2005, dated 2010)
Structures can show the parent of a compound that is named as a salt.

Each compound was assayed against T1, recombinant human MCHR1-receptors (Homo sapiens, UniProt Q99705) (assay: MCHR filter binding assay (competition binding)). Details: membranes from CHO-K1 cells expressing human MCHR1; 0.2 nM [Phe13,[125I]Tyr19]-MCH; read-out: IC50 (nM), in vitro activity (binding assay).
T1 construct: expressed in transfected cells
T1 sequence (Q99705 whole entry): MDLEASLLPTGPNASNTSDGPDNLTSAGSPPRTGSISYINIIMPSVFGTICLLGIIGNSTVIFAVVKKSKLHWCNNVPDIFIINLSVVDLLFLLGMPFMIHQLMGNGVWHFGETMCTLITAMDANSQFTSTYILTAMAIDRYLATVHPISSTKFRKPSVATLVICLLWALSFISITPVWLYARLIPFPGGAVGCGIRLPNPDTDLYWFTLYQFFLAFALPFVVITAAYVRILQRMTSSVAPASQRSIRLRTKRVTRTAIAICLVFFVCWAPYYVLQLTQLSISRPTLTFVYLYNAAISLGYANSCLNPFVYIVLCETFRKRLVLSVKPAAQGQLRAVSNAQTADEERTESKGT
In short: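 Membranes from CHO-K1 cells stably expressing human MCHR1 (2.8 μg) preincubated 15 min with competitor, then 1 h at rt with 0.2 nM [Phe13,[125I]Tyr19]-MCH in HEPES/CaCl2/BSA/phenanthroline/Triton buffer. Bound radioactivity counted after rapid filtration over PVP/BSA-treated GF/B filters.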
Compound `CC(=O)c1nc2cc(C)ccc2n1C1CCN(CC2Cc3ccccc3C2)CC1` [Example 82, 1-[1-(1-Indan-2-ylmethyl-piperidin-4-yl)-5-methyl-1H-benzoimidazol-2-yl]-ethanone] has an IC50 of 200 to 5000 nM. Work on `Cc1ccc2c(c1)nc(C(C)C)n2[C@@H]1CCN(CC2Cc3ccccc3C2)C[C@H]1O` [Example 83, (3R,4R)-1-Indan-2-ylmethyl-4-(2-isopropyl-5-methyl-benzoimidazol-1-yl)-piperidin-3-ol] yielded an IC50 of 200 to 5000 nM. For `CCC(=O)Nc1ccc2c(c1)C[C@H](CN1CC[C@@H](n3c(C(C)C)nc4cc(C)ccc43)[C@H](O)C1)C2` [Example 84, N-{(R)-2-[(3R,4R)-3-Hydroxy-4-(2-isopropyl-5-methyl-benzoimidazol-1-yl)-piperidin-1-ylmethyl]-indan-5-yl}-propionamide], the IC50 was < 20 nM. For `CO[C@@H]1CN(C[C@H]2Cc3ccc(C#N)cc3C2)CC[C@H]1n1c(C)nc2cc(C)ccc21` [Example 85, (S)-2-[(3R,4R)-4-(2,5-Dimethyl-benzoimidazol-1-yl)-3-methoxy-piperidin-1-ylmethyl]-indan-5-carbonitrile], the IC50 was < 20 nM. `Cc1ccc2c(c1)nc(C(C)C)n2[C@@H]1CCN(C[C@@H]2Cc3ccc(NC(=O)C(C)C)cc3C2)C[C@H]1O` [Example 86, N-{(R)-2-[(3R,4R)-3-Hydroxy-4-(2-isopropyl-5-methyl-benzoimidazol-1-yl)-piperidin-1-ylmethyl]-indan-5-yl}-isobutyramide] was tested, and the IC50 was 20 to 200 nM. With `CO[C@@H]1CN(C[C@@H]2Cc3ccc(Br)cc3C2)CC[C@H]1n1c(C)nc2cc(C)ccc21` [Example 87, 1-[(3R,4R)-1-((R)-5-Bromo-indan-2-ylmethyl)-3-methoxy-piperidin-4-yl]-2,5-dimethyl-1H-benzoimidazole; dihydrochloride] the IC50 was 20 to 200 nM. `Cc1ccc2c(c1)nc(C)n2[C@@H]1CCN(C[C@H]2Cc3ccc(NC(=O)C4CC4)cc3C2)C[C@H]1O` [Example 88, Cyclopropanecarboxylic acid {(S)-2-[(3R,4R)-4-(2,5-dimethyl-benzoimidazol-1-yl)-3-hydroxy-piperidin-1-ylmethyl]-indan-5-yl}-amide] showed an IC50 of 20 to 200 nM. With `CO[C@@H]1CN(C[C@@H]2Cc3ccc(Br)cc3C2)CC[C@H]1n1c(C(C)C)nc2cc(C)ccc21` [Example 89, 1-[(3R,4R)-1-((R)-5-Bromo-indan-2-ylmethyl)-3-methoxy-piperidin-4-yl]-2-isopropyl-5-methyl-1H-benzoimidazole] the IC50 was 20 to 200 nM. For `CO[C@H]1CN(C[C@@H]2Cc3ccc(Br)cc3C2)CC[C@@H]1n1c(C(C)C)nc2cc(C)ccc21` [Example 90, 1-[(3S,4S)-1-((R)-5-Bromo-indan-2-ylmethyl)-3-methoxy-piperidin-4-yl]-2-isopropyl-5-methyl-1H-benzoimidazole], the IC50 was 200 to 5000 nM. `CO[C@H]1CN(C[C@H]2Cc3ccc(Br)cc3C2)CC[C@@H]1n1c(C)nc2cc(C)ccc21` [Example 91, 1-[(3S,4S)-1-((S)-5-Bromo-indan-2-ylmethyl)-3-methoxy-piperidin-4-yl]-2,5-dimethyl-1H-benzoimidazole; dihydrochloride] was tested, and the IC50 was 20 to 200 nM. Compound `COc1ccc2c(c1)CC(CN1CC[C@H](n3c(C)nc4cc(C)ccc43)[C@@H](OC)C1)C2` (stereo partly drawn) [Example 92, 1-[(3S,4S)-3-Methoxy-1-(5-methoxy-indan-2-ylmethyl)-piperidin-4-yl]-2,5-dimethyl-1H-benzoimidazole; dihydrochloride] has an IC50 of 20 to 200 nM. `COc1ccc2c(c1)CC(CN1CC[C@H](n3c(C(C)C)nc4cc(C)ccc43)[C@@H](OC)C1)C2` (stereo partly drawn) [Example 93, 2-Isopropyl-1-[(3S,4S)-3-methoxy-1-(5-methoxy-indan-2-ylmethyl)-piperidin-4-yl]-5-methyl-1H-benzoimidazole dihydrochloride] showed an IC50 of 20 to 200 nM. Work on `CO[C@H]1CN(CC2Cc3cc(Cl)c(Cl)cc3C2)CC[C@@H]1n1c(C)nc2cc(C)ccc21` [Example 94, 1-[(3S,4S)-1-(5,6-Dichloro-indan-2-ylmethyl)-3-methoxy-piperidin-4-yl]-2,5-dimethyl-1H-benzoimidazole; dihydrochloride] yielded an IC50 of 200 to 5000 nM. Work on `CO[C@H]1CN(CC2Cc3cc(Cl)c(Cl)cc3C2)CC[C@@H]1n1c(C(C)C)nc2cc(C)ccc21` [Example 95, 1-[(3S,4S)-1-(5,6-Dichloro-indan-2-ylmethyl)-3-methoxy-piperidin-4-yl]-2-isopropyl-5-methyl-1H-benzoimidazole; dihydrochloride] yielded an IC50 of 200 to 5000 nM. In the case of `Cc1ccc2c(c1)nc(C(C)(C)O)n2C1CCN(C[C@@H]2Cc3ccc(Br)cc3C2)CC1` [Example 96, 2-{1-[1-((R)-5-Bromo-indan-2-ylmethyl)-piperidin-4-yl]-5-methyl-1H-benzoimidazol-2-yl}-propan-2-ol], the IC50 is reported as 20 to 200 nM. For `CO[C@@H]1CN(CC2Cc3cccc(Cl)c3C2)CC[C@H]1n1c(C)nc2cc(C)ccc21` (stereo partly drawn) [Example 97, 1-[(3R,4R)-1-(4-Chloro-indan-2-ylmethyl)-3-methoxy-piperidin-4-yl]-2,5-dimethyl-1H-benzoimidazole], the IC50 was 20 to 200 nM. Work on `CO[C@@H]1CN(CC2Cc3ccc(C(C)C)cc3C2)CC[C@H]1n1c(C(C)C)nc2cc(C)ccc21` (stereo partly drawn) [Example 98, 2-Isopropyl-1-[(3R,4R)-1-(5-isopropyl-indan-2-ylmethyl)-3-methoxy-piperidin-4-yl]-5-methyl-1H-benzoimidazole] yielded an IC50 of 200 to 5000 nM. With `Cc1ccc2c(c1)nc(C(C)(C)O)n2C1CCN(C[C@H]2Cc3ccc(Br)cc3C2)CC1` [Example 99, 2-{1-[1-((S)-5-Bromo-indan-2-ylmethyl)-piperidin-4-yl]-5-methyl-1H-benzoimidazol-2-yl}-propan-2-ol] the IC50 was < 20 nM. Compound `CO[C@H]1CN(CC2Cc3cc(F)c(F)cc3C2)CC[C@@H]1n1c(C(C)C)nc2cc(C)ccc21` [Example 100, 1-[(3S,4S)-1-(5,6-Difluoro-indan-2-ylmethyl)-3-methoxy-piperidin-4-yl]-2-isopropyl-5-methyl-1H-benzoimidazole] has an IC50 of 20 to 200 nM. `CO[C@H]1CN(CC2Cc3cc(F)c(F)cc3C2)CC[C@@H]1n1c(C)nc2cc(C)ccc21` [Example 101, 1-[(3S,4S)-1-(5,6-Difluoro-indan-2-ylmethyl)-3-methoxy-piperidin-4-yl]-2,5-dimethyl-1H-benzoimidazole] showed an IC50 of 20 to 200 nM. `Cc1ccc2c(c1)ncn2C1CCN(CC2Cc3cccc(Cl)c3C2)CC1` (stereo not drawn) [Example 102, 1-[1-(4-Chloro-indan-2-ylmethyl)-piperidin-4-yl]-5-methyl-1H-benzoimidazole; compound with trifluoroacetic acid] gave an IC50 of 200 to 5000 nM. In the case of `Cc1ccc2c(c1)nc(C(C)(C)O)n2C1CCN(CC2Cc3cccc(Cl)c3C2)CC1` (stereo not drawn) [Example 103, 2-{1-[1-(4-Chloro-indan-2-ylmethyl)-piperidin-4-yl]-5-methyl-1H-benzoimidazol-2-yl}-propan-2-ol; compound with trifluoroacetic acid], the IC50 is reported as 20 to 200 nM. `CO[C@@H]1CN(CC2Cc3ccc(C(C)C)cc3C2)CC[C@H]1n1c(C)nc2cc(C)ccc21` (stereo partly drawn) [Example 104, 1-[(3R,4R)-1-(5-Isopropyl-indan-2-ylmethyl)-3-methoxy-piperidin-4-yl]-2,5-dimethyl-1H-benzoimidazole] gave an IC50 of 200 to 5000 nM. Work on `Cc1ccc2c(c1)CC(CN1CCC(n3c(C(C)(C)F)nc4cc(C)ccc43)CC1)C2` (stereo not drawn) [Example 105, 2-(1-Fluoro-1-methyl-ethyl)-5-methyl-1-[1-(5-methyl-indan-2-ylmethyl)-piperidin-4-yl]-1H-benzoimidazole] yielded an IC50 of 200 to 5000 nM.
